Measured values from patent publication US20110059940A1, “2-Aryl Glycinamide Derivatives” (Bristol- Myers Squibb Company, priority 2008, published 2011).
Where two headings read alike, the source gives them in different places.

Tested on: β-amyloid peptide formation in human H4 cells
Experiment: Inhibition of β-amyloid peptide (Aβ) formation in H4 cells overexpressing HPLAP-APP fusion protein
Format: cell-based
Method: γ-Secretase inhibitors were also evaluated using in vitro assays based on the inhibition of Aβ formation in cultured cells. Cultured human cell lines, such as HEK293 and H4 cells, which express APP and γ-secretase activity or transfected derivative cell lines that overexpress wild-type APP, mutant APP, or APP fusion proteins will secrete Aβ peptides into the culture media that can be quantified as previously outlined (Dovey, H. et al., J. Neurochem. 2001, 76, 173). The incubation of these cultured cells with γ-secretase inhibitors decreases the production of Aβ peptides. For instance, H4 cells stably transfected to overexpress the HPLAP-APP fusion protein described above were grown as above, detached, and adjusted to 2×10^5 cells/ml. 100 μl of the resulting suspension was then added to each well of a 96-well plate. After 4 hrs, the media was removed and replaced with 100 μl serum-free media containing various dilutions of the test compound. Plates were then incubated for 18 hrs at 37° C. and a 100 μl aliquot of the tissue culture supernatant was removed for determination of Aβ levels using time-resolved fluorescence of the homogenous sample as outlined above. The extent of Aβ inhibition was used to calculate the IC50 value for the test compound.
Representative compounds were evaluated in the above assay and were determined to inhibit Aβ formation.

[1] = class symbol, read-out: Binding affinity (IC50 in nM), activity class
[2] = number in parentheses, read-out: Binding affinity (IC50 in nM)

Compound | IC50 [1] | IC50 [2]
CC(C)(C)OC(=O)c1ccc(CN(C(C(N)=O)c2cc(F)cc(F)c2)S(=O)(=O)c2ccc(Cl)cc2)cc1 (stereo not drawn) [Example 1, α-[(4-Chlorobenzenesulfonyl)((4-t-butyloxycarbonylphenyl)methyl)amino]-3,5-difluorobenzeneacetamide] | 0.25 to 50 nM | 
NC(=O)C(c1cc(F)cc(F)c1)N(Cc1ccc(C(=O)O)cc1)S(=O)(=O)c1ccc(Cl)cc1 (stereo not drawn) [Example 2, α-[(4-Chlorobenzenesulfonyl)((4-carboxyphenyl)methyl)amino]-3,5-difluorobenzene-acetamide] | 50 to 500 nM | 116 nM
CCNC(=O)c1ccc(CN(C(C(N)=O)c2cc(F)cc(F)c2)S(=O)(=O)c2ccc(Cl)cc2)cc1 (stereo not drawn) [Example 3, α-[(4-Chlorobenzenesulfonyl)((4-ethylaminocarbonylphenyl)methyl)amino]-3,5-difluorobenzeneacetamide] | 0.25 to 50 nM | 1.28 nM
CC(C)(C)NC(=O)c1ccc(CN(C(C(N)=O)c2cc(F)cc(F)c2)S(=O)(=O)c2ccc(Cl)cc2)cc1 (stereo not drawn) [Example 4, α-[(4-Chlorobenzenesulfonyl)(4-t-butylaminocarbonylphenylmethyl)amino]-3,5-difluorobenzeneacetamide] | 0.25 to 50 nM | 
NC(=O)C(c1cc(F)cc(F)c1)N(Cc1ccc(C(=O)N2CCC2)cc1)S(=O)(=O)c1ccc(Cl)cc1 (stereo not drawn) [Example 5, α-[(4-Chlorobenzenesulfonyl)(4-azetidinylcarbonylphenylmethyl)amino]-3,5-difluorobenzene-acetamide] | 0.25 to 50 nM | 
CNC(=O)c1ccc(CN(C(C(N)=O)c2cc(F)cc(F)c2)S(=O)(=O)c2ccc(Cl)cc2)cc1 (stereo not drawn) [Example 6, α-[(4-Chlorobenzenesulfonyl)(4-methylaminocarbonylphenylmethyl)amino]-3,5-difluorobenzene-acetamide] | 0.25 to 50 nM | 
NC(=O)C(c1cc(F)cc(F)c1)N(Cc1ccc(C(=O)NC2CCC2)cc1)S(=O)(=O)c1ccc(Cl)cc1 (stereo not drawn) [Example 8] | 0.25 to 50 nM | 0.93 nM
CCN1CCc2cc(CN(C(C(N)=O)c3cc(F)cc(F)c3)S(=O)(=O)c3ccc(Cl)cc3)ccc2C1=O (stereo not drawn) [Example 9, α-[(4-Chlorobenzenesulfonyl)(1-oxo-2-ethyl-1,2,3,4-tetrahydroisoquinolin-6-ylmethyl)amino]-3,5-difluorobenzeneacetamide] | 0.25 to 50 nM | 
NC(=O)C(c1cc(F)cc(F)c1)N(Cc1ccc(-n2cncn2)cc1)S(=O)(=O)c1ccc(Cl)cc1 (stereo not drawn) [Example 11, α-[(4-Chlorobenzenesulfonyl)(4-(1,2,4-triazolyl)-phenylmethyl)amino]-3,5-difluorobenzene-acetamide] | 0.25 to 50 nM | 
NC(=O)C(c1cc(F)cc(F)c1)N(Cc1ccc(-n2cccn2)cc1)S(=O)(=O)c1ccc(Cl)cc1 (stereo not drawn) [Example 12, α-[(4-Chlorobenzenesulfonyl)(4-pyrazolylphenylmethyl)amino]-3,5-difluorobenzene-acetamide] | 0.25 to 50 nM | 9.15 nM
NC(=O)C(c1cc(F)cc(F)c1)N(Cc1ccc(F)cc1)S(=O)(=O)c1ccc(Cl)cc1 (stereo not drawn) [Example 14, α-[(4-Chlorobenzenesulfonyl)(4-fluorophenylmethyl)amino]-3,5-difluorobenzene-acetamide] | 0.25 to 50 nM | 
N#Cc1ccc(CN(C(C(N)=O)c2cc(F)cc(F)c2)S(=O)(=O)c2ccc(Cl)cc2)cc1 (stereo not drawn) [Example 16, α-[(4-Chlorobenzenesulfonyl)(4-cyanophenylmethyl)amino]-3,5-difluorobenzene-acetamide] | 0.25 to 50 nM | 12.4 nM
Cc1nc(-c2ccc(CN(C(C(N)=O)c3cc(F)cc(F)c3)S(=O)(=O)c3ccc(Cl)cc3)cc2)no1 (stereo not drawn) [Example 18] | 0.25 to 50 nM | 
NC(=O)C(c1cc(F)cc(F)c1)N(Cc1ccc(-c2ncon2)cc1)S(=O)(=O)c1ccc(Cl)cc1 (stereo not drawn) [Example 19] | 0.25 to 50 nM | 
CCNC(=O)c1ccc(CN(C(C(N)=O)c2ccccc2C)S(=O)(=O)c2ccc(Cl)cc2)cc1 (stereo not drawn) [Example 31, α-[(4-Chlorobenzenesulfonyl)((4-ethylaminocarbonylphenyl)methyl)amino]-2-methylbenzene-acetamide] | 50 to 500 nM | 127 nM
